“Also recorded” adds a separate entry of the source.

Common to all, as to type: physicochemical
Data set [1] is described as follows: Vaporization temperature from endothermic peaks of TG-DSC curves. The note with it: for Vaporization temp.: endothermic peak of TG-DSC curve. As to the method: (§1) The physical properties set forth in Tables 1 and 2 were measured by the following method: the melting point and vaporization temperature were measured from endothermic peaks of TG-DSC curves. However, the values indicated by the symbol * in Table 1 were measured by a melting point-measuring device, because the heat absorption by vaporization occurred along with the melting of the precursors during the measurement. The residue amounts were measured by thermal gravimetric analysis (TGA) under atmospheric pressure (N2, 20 ml/min) and recorded as residual weight of the precursors at 550° C.
(§2) TG-DSC analysis for the precursor Ti(eip)2 according to Example 11 and the precursor Ti(2meip)2 according to Example 12 was carried out under atmospheric pressure in nitrogen gas or in air, and under a reduced pressure (1.3 mbar) using Netzsch STA 449C equipment. In this analysis, the precursors were heated to 550° C. at a scanning rate of 10° C./min in nitrogen gas of a flow rate of 20 ml/min, or in air of a flow rate of 30 ml/min.
(§3) (see, FIG. 1b). […] This difference is due to that Ti(2meip)2 has a relatively weak Ti-N bond compared with a Ti-O bond and has a homoleptic structure.

A short description of data set [2]: Residue amount by thermal gravimetric analysis (TGA). The note with it: for Residue amount: TGA, atmospheric pressure, N2 20 ml/min, residual weight at 550° C.; for Residues after being vaporized: in words. The protocol: as §1
The nature of data set [3]: Solubility of precursor in organic solvents. The note with it: for Solubility in methanol: 0.5 g in 5 ml of methanol; for Solubility in n-butyl acetate: 0.5 g in 5 ml of n-butyl acetate. The protocol:
To evaluate solubility of precursors required in introducing the precursors in liquid phase for the deposition of thin films, the precursor Ti(eip)2 prepared in Example 11 and the precursor Ti(2meip)2 prepared in Example 12 were dissolved in methanol and n-butyl acetate, respectively. […] In contrast, 0.5 g of the precursor Ti(2meip)2 containing asymmetric carbons on its ligand was soluble in both methanol and n-butyl acetate.

Data set [4] can be described thus: Moisture proof of precursor (left to stand in air, NMR analysis). The note with it: left to stand in air for three months or more. As to the method: 1.0 g of the precursor Ti(eip)2 prepared in Example 11 and 1.0 9 of the precursor Ti(2meip)2 prepared in Example 12 were placed in vials, respectively, and left to stand in air for three months or more. The analysis by NMR of the precursors was then carried out.

A short description of data set [5]: TG-DSC analysis in air (thermal decomposition). The note with it: for Thermal decomposition behaviour (exothermic peak): in words. As to the method: as §2, §3
For orientation: Differential scanning calorimetry records heat flow against a reference as temperature is scanned.

The nature of data set [6]: Vaporization rates according to temperature by thermogravimetric analysis (FIG. 4). The note with it: vs Ti(mpd)(thd)2, Ti(thd)2(O-iPr)2, Ba(methd)2, Sr(methd)2. An excerpt: Moreover, vaporization rates of the precursor Ti(2meip)2 was compared to that of the commercial precursors Ti(mpd)(thd)2, Ti(thd)2 (O-iPr)2, Ba(methd)2 and Sr(methd)2 The results are shown in FIG. 4.

“Titanium bis[4-(1-ethylethoxy)imino-2-pentanoate] [Ti(1eeip)2]”: the Vaporization temp. in data set [1] (Table 1) is 303 °C. Also, in data set [2] (Table 1), the Residue amount is listed as 7.6%.

Turning to “Strontium bis[1-methoxyethoxy-2,2,6,6-tetramethyl-3,5-heptanedionate] [Sr(methd)2, reference compound]”, the Vaporization temp. in data set [1] (Table 2, prior art precursors) turned out to be 389 °C. In addition, the Residue amount in data set [2] (Table 2, prior art precursors) is on record as 3.1%.

“Titanium bis[4-(1-methylethoxy)imino-2-pentanoate] [Ti(1meip)2]”: in data set [1] (Table 1), the Vaporization temp. came out at 295 °C. The same substance yielded a Residue amount in data set [2] (Table 1) of 3.3%.

For “Titanium bis[4-(1,1-dimethylethoxy)imino-2-pentanoate] [Ti(1deip)2]”, the Vaporization temp. in data set [1] (Table 1) was found to be 290 °C. The same substance returned a Residue amount in data set [2] (Table 1) of 13.7%.

In data set [1] (Table 1), “Titanium bis[2,6-dimethyl-5-(1-methylethoxy)imino-3-heptanoate] [Ti(26dm1meih)2]” displayed a Vaporization temp. of 285 °C. Moreover, in data set [2] (Table 1), the Residue amount amounted to 3.6%.

Consider “Titanium bis[2,2-dimethyl-5-(ethoxy)imino-3-heptanoate] [Ti(22dmeih)2]”, for which the Vaporization temp. in data set [1] (Table 1) turned out to be 307 °C. In addition, in data set [2] (Table 1), the Residue amount worked out at 10.6%.

Turning to “Barium bis[1-methoxyethoxy-2,2,6,6-tetramethyl-3,5-heptanedionate] [Ba(methd)2, reference compound]”, the Vaporization temp. in data set [1] (Table 2, prior art precursors) turned out to be 391 °C. In data set [2] (Table 2, prior art precursors), this substance yielded a Residue amount of 8.3%.

In the case of “Titanium bis[4-(ethoxy)imino-2-pentanoate] [Ti(eip)2]”, in data set [1] (Table 1), the Vaporization temp. stood at 323 °C. In data set [3], the Solubility in methanol entry is “soluble” and the “Solubility in n-butyl acetate” value is on record as “insoluble”. Moreover, the Residue after evaporation entry in data set [2] is listed as “about 8%”. This substance showed a Residue amount in data set [2] (Table 1) of 8.0%. Further, in data set [4], the “Stability on standing in air (NMR)” value was “no peaks of non-coordinated ligands”.

Substance “Titanium [2-methyl-2,4-dioxy-pentane]-bis[(2,2,6,6-tetramethyl-3,5-heptanedionate)] [Ti(mpd)(thd)2, reference compound]” yielded a Vaporization temp. in data set [1] (Table 2, prior art precursors) of 248 °C. The “Thermal decomposition behaviour (exothermic peak)” value in data set [5] is “weak exothermic peak over a wide range of temperature”. For the same substance, the Residue amount in data set [2] (Table 2, prior art precursors) is less than 0.5%.

“Titanium bis[2,6-dimethyl-5-(2-methylethoxy)imino-3-heptanoate] [Ti(26dm2meih)2]” returned a Vaporization temp. in data set [1] (Table 1) of 283 °C. Besides, the Residue amount in data set [2] (Table 1) came to 8.3%.

For the substance “Titanium bis(iso-propoxide)bis[(2,2,6,6-tetramethyl-3,5-heptanedionate)] [Ti(OiPr)2(thd)2, reference compound]”, the Vaporization temp. in data set [1] (Table 2, prior art precursors) amounted to 240 °C. Besides, the “Thermal decomposition behaviour (exothermic peak)” value in data set [5] is recorded as “weak exothermic peak over a wide range of temperature”. In data set [2] (Table 2, prior art precursors), this substance returned a Residue amount of 7%.

For the substance “Titanium bis[4-(n-propoxy)imino-2-pentanoate] [Ti(pip)2]”, in data set [2] (Table 1), the Residue amount was 26.6%.

In data set [1] (Table 1), “Titanium bis[4-(2-methylethoxy)imino-2-pentanoate] [Ti(2meip)2]” showed a Vaporization temp. of 290 °C. Also, in data set [5] (TG-DSC in air, 30 ml/min, 10° C./min), the “Thermal decomposition, exothermic peak temperature” value was “about 315 °C”. In data set [3], the Solubility in methanol result is “soluble” and the “Solubility in n-butyl acetate” value is listed as “soluble”. In data set [2] (Table 1), the Residue amount was less than 0.5%. For the same substance, in data set [2], the “Residues after being vaporized” value is listed as “no residues”. In addition, in data set [4], the “Stability on standing in air (NMR)” value is recorded as “no peaks of non-coordinated ligands; also recorded: not structurally changed”. For the same substance, the “Vapor pressure at the respective temperatures compared to the commercial precursors” value in data set [6] is given as “low in their vapor pressure”.

For “Titanium bis[2,2-dimethyl-5-(2-methylethoxy)imino-3-heptanoate] [Ti(22dm2meih)2]”, the Vaporization temp. in data set [1] (Table 1) is 287 °C. The “Temperature at which the precursor is vaporized” value in data set [1] (atmospheric pressure / nitrogen atmosphere, without thermal decomposition) was determined as 287 °C. Moreover, the “Enhanced solubility over the precursor Ti(2meip)2” value in data set [3] (relative to Ti(2meip)2) came to 20%. This substance gave a Residue amount in data set [2] (Table 1) of 0.5%. The “Residues after being vaporized” value in data set [2] was “no residues”.
